{"source": "patent US20230124095A1", "about": "(AMORPHICAL LTD., priority 2020, published 2023)", "tested_on": "Cathepsin B", "assay": "Cathepsin B activity in lysate of LNCaP clone FGC cells", "type": "cell-based, human", "settings": "4 passages in supplemented medium"}
{"smiles": "[Ca+2].[Cl-].[Cl-]", "note": "[CaCl2, calcium chloride]", "values": [{"measurement": "reduction of Cathepsin B activity compared to untreated control", "value": 16, "unit": "%"}]}
